Assay results taken from US20050037436A1, “Test systems and the use thereof for identifying and characterizing compounds” (priority 2000, published 2005).

Assays:
[1] = target: T1, human muscarinic M1 acetylcholine receptor (Homo sapiens, UniProt P11229); type: cell-based; conditions: 400 ng/ml BAY44-4400
T1 construct: The full-length cDNA of a human muscarinic receptor 1 (huM1Rez); expressed in transfected cells; host or cells: HEK-293, transient (pEGFP-N3)
T1 sequence (P11229 1-460): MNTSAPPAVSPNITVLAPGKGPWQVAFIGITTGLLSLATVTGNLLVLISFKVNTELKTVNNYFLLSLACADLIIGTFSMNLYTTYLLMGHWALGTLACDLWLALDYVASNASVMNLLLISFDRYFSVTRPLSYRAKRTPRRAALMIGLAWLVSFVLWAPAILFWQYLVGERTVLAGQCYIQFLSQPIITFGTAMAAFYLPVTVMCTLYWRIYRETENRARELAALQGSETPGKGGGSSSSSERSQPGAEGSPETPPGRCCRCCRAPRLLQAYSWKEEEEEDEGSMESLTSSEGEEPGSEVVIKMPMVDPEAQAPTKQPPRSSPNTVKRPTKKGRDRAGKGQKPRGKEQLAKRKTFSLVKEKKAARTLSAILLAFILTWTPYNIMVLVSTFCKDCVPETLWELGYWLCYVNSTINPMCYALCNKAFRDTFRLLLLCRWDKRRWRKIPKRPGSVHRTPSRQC

[2] = target: T2, mouse β2-adrenergic receptor (Mus musculus, UniProt P18762); assay: Ca2+ imaging of HEK-293 cells transfected with β2-R-GFP (control); type: cell-based; conditions: BAY 44-4400 present
T2 construct: was fused with a C-terminal EGFP tag by amplifying the full-length cDNA with the P117 mouse 2AR XhoI 5′ primer; expressed in transfected cells; host or cells: HEK-293, transient (pEGFP-N3)
T2 sequence (P18762 whole entry, the tested form may be a part): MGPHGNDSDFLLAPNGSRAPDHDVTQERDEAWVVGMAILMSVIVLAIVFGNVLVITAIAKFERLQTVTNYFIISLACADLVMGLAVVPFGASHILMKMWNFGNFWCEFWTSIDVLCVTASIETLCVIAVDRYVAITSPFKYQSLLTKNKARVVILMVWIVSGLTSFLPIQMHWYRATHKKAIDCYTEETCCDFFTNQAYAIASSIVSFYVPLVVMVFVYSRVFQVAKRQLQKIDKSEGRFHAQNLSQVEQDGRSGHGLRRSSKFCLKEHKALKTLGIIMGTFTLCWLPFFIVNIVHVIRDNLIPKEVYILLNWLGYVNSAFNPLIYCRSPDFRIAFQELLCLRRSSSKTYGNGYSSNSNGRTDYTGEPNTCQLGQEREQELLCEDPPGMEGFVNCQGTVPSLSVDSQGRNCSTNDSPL
Experimental: The intracellular free Ca^2+ concentration [Ca^2+]i was measured in COS-7 and HEK293 cells transiently transfected with the HC110-R-EGFP or β2-AR-EGFP construct using the calcium imaging method (see also FIG. 11). In each case 2×10^5 COS-7 and HEK293 cells were applied to a 42 mm cover glass coated with 1% gelatine in 55 mm tissue culture dishes with 5 ml of DMEM medium (with 10% FCS and pen/strep). The transfection took place with the aid of the non-liposomal transfection reagent FuGENE 6 (Roche Molecular Biochemicals, Mannheim). […] Constructs of the HC110-R full-length clone with a GFP tag fused in the correct reading frame, and the complete cDNA of the β2-adrenergic receptor which had likewise been provided with a GFP tag at the 3′ end, were transfected.
After the incubation, the cells loaded with Fura-2/AM were examined under an inverted microscope (Zeiss, Axiovert, Germany) and, in parallel with this, in a digital imaging fluorescence microscope (PTI) and differentiated into transfected and untransfected cells at a wavelength of 440 and 490 nm respectively. On average, 5-7 transfected and non transfected cells were selected by fixing an ROI (region of interest). The extinction was measured at 340 nm (calcium-bound Fura-2/AM) and 380 nm (free Fura-2/AM), and the emission was measured at 510 nm. Evaluation took place using the Image Master 1.x software by forming the quotient of 340:510 nm, 380:510 nm and the ratio of 340/380:510 nm (background corrected images) as a function of the agent added.
Agents were always added 6 min after starting the measurement by removing an appropriate volume of Na^+ HBS buffer and pipetting the agent directly into the sample vessel for a further 30 to 50 min. The total volume in the sample vessel was constant at 1.5 ml throughout the experiment. […] Addition of CdCl2 and nifedipine took place immediately at the start of the experiment and before addition of α-LTX, and EGTA was added both at the start of the experiment and 4 min after the addition of α-LTX. […]
The data were analyzed using the Excel 98 table calculation programme. […]

Structure (SMILES): CC(C)C[C@H]1C(=O)O[C@H](Cc2ccc(N3CCOCC3)cc2)C(=O)N(C)[C@@H](CC(C)C)C(=O)O[C@H](C)C(=O)N(C)[C@@H](CC(C)C)C(=O)O[C@H](Cc2ccc(N3CCOCC3)cc2)C(=O)N(C)[C@@H](CC(C)C)C(=O)O[C@H](C)C(=O)N1C [BAY44-4400, cyclo(-D-Lac-L-MeLeu-D-p-morpholinyl-PhLac-L-MeLeu-)]
- carbachol-induced increase in [Ca2+]i in presence of BAY44-4400 [1]: 89 ± 5.5 nM
- effect on isoproterenol-induced Ca2+ increase [2]: does not interfere with the isoproterenol-induced signal transmission
- effect on isoproterenol-induced Ca2+ increase ([2]; listed as BAY 44-4400): unaffected by BAY 44-4400
